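Dose response: 5 concentrations. Exposure: 48 h. Format: 96-well plates. Endpoint: linear interpolation; highest concentration if not reached. Definition used: TGI = concentration required for complete inhibition of growth.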
Legend:
Test in all cases: NCI tumour cell line growth inhibition, 48 h
[1] = test system: SW-620 colon
[2] = test system: DMS 273 small cell lung
[3] = test system: NCI-H522 lung
[4] = test system: UACC-62 melanoma
[5] = test system: SF-539 CNS
[6] = test system: MOLT-4 leukemia
[7] = test system: SK-OV-3 ovarian
[8] = test system: DMS 114 small cell lung
[9] = test system: A549 NSCLC
[10] = test system: SK-MEL-28 melanoma
[11] = test system: IGROV1 ovarian
[12] = test system: TK-10 renal
[13] = test system: U251 CNS
[14] = test system: SK-MEL-2 melanoma
[15] = test system: HCT-15 colon
[16] = test system: SNB-75 CNS
[17] = test system: KM12 colon
[18] = test system: DLD-1 colon
[19] = test system: HCT-116 colon
[20] = test system: OVCAR-3 ovarian
[21] = test system: LOX IMVI melanoma
[22] = test system: SNB-78 CNS
[23] = test system: RPMI-8226 leukemia
[24] = test system: KM20L2 colon
[25] = test system: SK-MEL-5 melanoma
[26] = test system: OVCAR-5 ovarian
[27] = test system: SF-268 CNS
[28] = test system: A498 renal
[29] = test system: OVCAR-4 ovarian
[30] = test system: OVCAR-8 ovarian
[31] = test system: HOP-18 NSCLC
[32] = test system: HOP-92 NSCLC
[33] = test system: COLO 205 colon
[34] = test system: CCRF-CEM leukemia
[35] = test system: ACHN renal
[36] = test system: HL-60(TB) leukemia
[37] = test system: HT29 colon
[38] = test system: SR leukemia
[39] = test system: SN12C renal
[40] = test system: M19-MEL melanoma
[41] = test system: NCI-H23 lung
[42] = test system: CAKI-1 renal
[43] = test system: HOP-62 NSCLC
[44] = test system: SF-295 CNS
[45] = test system: NCI-H460 lung
[46] = test system: UO-31 renal
[47] = test system: MALME-3M melanoma
[48] = test system: NCI-H226 lung
[49] = test system: UACC-257 melanoma
[50] = test system: K-562 leukemia
[51] = test system: SNB-19 CNS
[52] = test system: XF 498 CNS
[53] = test system: 786-0 renal
[54] = test system: M14 melanoma
[55] = test system: HCC-2998 colon
[56] = test system: RXF 393 renal
[57] = test system: EKVX NSCLC
[58] = test system: LXFL 529 NSCLC
[59] = test system: MDA-N
[60] = test system: PC-3 prostate
[61] = test system: BT-549 breast
[62] = test system: NCI/ADR-RES ovarian
[63] = test system: T-47D breast
[64] = test system: MDA-MB-435
[65] = test system: MCF7 breast
[66] = test system: DU-145 prostate
[67] = test system: HS 578T breast
[68] = test system: MDA-MB-231 breast

Nc1nc(SCCC/C=C/I)nc2c1ncn2C1OC(CO)C(O)C1O (stereo not drawn)
TGI [1]: > 202 µM
TGI [2]: > 202 µM
TGI [3]: > 202 µM
TGI [4]: > 202 µM
TGI [5]: > 202 µM
TGI [6]: > 202 µM
TGI [7]: > 202 µM
TGI [8]: > 202 µM
TGI [9]: > 202 µM
TGI [10]: > 202 µM
TGI [11]: > 202 µM
TGI [12]: > 202 µM
TGI [13]: > 202 µM
TGI [14]: > 202 µM
TGI [15]: > 202 µM
TGI [16]: > 202 µM
TGI [17]: > 202 µM
TGI [18]: > 202 µM
TGI [19]: > 202 µM
TGI [20]: > 202 µM
TGI [21]: > 202 µM
TGI [22]: > 202 µM
TGI [23]: > 202 µM
TGI [24]: > 202 µM
TGI [25]: > 202 µM
TGI [26]: > 202 µM
TGI [27]: > 202 µM
TGI [28]: > 202 µM
TGI [29]: > 202 µM
TGI [30]: > 202 µM
TGI [31]: > 202 µM
TGI [32]: > 202 µM
TGI [33]: > 202 µM
TGI [34]: > 202 µM
TGI [35]: > 202 µM
TGI [36]: > 202 µM
TGI [37]: > 202 µM
TGI [38]: > 202 µM
TGI [39]: > 202 µM
TGI [40]: > 202 µM
TGI [41]: > 202 µM
TGI [42]: > 202 µM
TGI [43]: > 202 µM
TGI [44]: > 202 µM
TGI [45]: > 202 µM
TGI [46]: > 202 µM
TGI [47]: > 202 µM
TGI [48]: > 202 µM
TGI [49]: > 202 µM
TGI [50]: > 202 µM
TGI [51]: > 202 µM
TGI [52]: > 202 µM
TGI [53]: > 202 µM
TGI [54]: > 202 µM

Cn1c(=O)oc2cc(C3CCC(=O)N3Cc3ccc(Cl)cc3)ccc21 (stereo not drawn)
TGI [1]: > 100 µM
TGI [2]: > 100 µM
TGI [3]: > 100 µM
TGI [4]: > 100 µM
TGI [5]: > 100 µM
TGI [6]: > 100 µM
TGI [7]: > 100 µM
TGI [8]: > 100 µM
TGI [55]: > 100 µM
TGI [9]: > 100 µM
TGI [10]: > 100 µM
TGI [11]: > 100 µM
TGI [56]: > 100 µM
TGI [12]: > 100 µM
TGI [13]: > 100 µM
TGI [14]: > 100 µM
TGI [15]: > 100 µM
TGI [16]: > 100 µM
TGI [17]: > 100 µM
TGI [18]: > 100 µM
TGI [19]: > 100 µM
TGI [21]: > 100 µM
TGI [22]: > 100 µM
TGI [23]: > 100 µM
TGI [24]: > 100 µM
TGI [25]: > 100 µM
TGI [26]: > 100 µM
TGI [27]: > 100 µM
TGI [29]: > 100 µM
TGI [30]: > 100 µM
TGI [31]: > 100 µM
TGI [33]: > 100 µM
TGI [34]: > 100 µM
TGI [35]: > 100 µM
TGI [57]: > 100 µM
TGI [36]: > 100 µM
TGI [37]: > 100 µM
TGI [38]: > 100 µM
TGI [39]: > 100 µM
TGI [40]: > 100 µM
TGI [41]: > 100 µM
TGI [42]: > 100 µM
TGI [43]: > 100 µM
TGI [44]: > 100 µM
TGI [58]: > 100 µM
TGI [45]: > 100 µM
TGI [46]: > 100 µM
TGI [47]: > 100 µM
TGI [48]: > 100 µM
TGI [49]: > 100 µM
TGI [50]: > 100 µM
TGI [51]: > 100 µM
TGI [52]: > 100 µM
TGI [53]: > 100 µM
TGI [54]: > 100 µM

COC(=O)c1cccc(C(=O)OC)c1
TGI [1]: > 100 µM
TGI [2]: > 100 µM
TGI [3]: > 100 µM
TGI [6]: > 100 µM
TGI [7]: > 100 µM
TGI [55]: > 100 µM
TGI [9]: > 100 µM
TGI [10]: > 100 µM
TGI [56]: > 100 µM
TGI [12]: > 100 µM
TGI [13]: > 100 µM
TGI [14]: > 100 µM
TGI [15]: > 100 µM
TGI [16]: > 100 µM
TGI [17]: > 100 µM
TGI [18]: > 100 µM
TGI [19]: > 100 µM
TGI [21]: > 100 µM
TGI [22]: > 100 µM
TGI [23]: > 100 µM
TGI [26]: > 100 µM
TGI [27]: > 100 µM
TGI [28]: > 100 µM
TGI [29]: > 100 µM
TGI [31]: > 100 µM
TGI [32]: > 100 µM
TGI [33]: > 100 µM
TGI [34]: > 100 µM
TGI [35]: > 100 µM
TGI [36]: > 100 µM
TGI [37]: > 100 µM
TGI [38]: > 100 µM
TGI [39]: > 100 µM
TGI [41]: > 100 µM
TGI [42]: > 100 µM
TGI [43]: > 100 µM
TGI [44]: > 100 µM
TGI [58]: > 100 µM
TGI [45]: > 100 µM
TGI [47]: > 100 µM
TGI [48]: > 100 µM
TGI [49]: > 100 µM
TGI [51]: > 100 µM
TGI [52]: > 100 µM
TGI [54]: > 100 µM

O=[N+]([O-])c1ccc(Cl)cc1C=NC12CC3CC(CC(C3)C1)C2
TGI [1]: > 100 µM
TGI [59]: > 100 µM
TGI [60]: > 100 µM
TGI [3]: > 100 µM
TGI [4]: > 100 µM
TGI [5]: > 86.7 µM
TGI [6]: 63.4 µM
TGI [7]: > 100 µM
TGI [61]: > 100 µM
TGI [55]: > 100 µM
TGI [9]: > 100 µM
TGI [62]: > 86.9 µM
TGI [10]: > 100 µM
TGI [11]: > 100 µM
TGI [63]: > 93.8 µM
TGI [64]: > 100 µM
TGI [56]: 97.6 µM
TGI [12]: > 100 µM
TGI [13]: > 100 µM
TGI [14]: > 100 µM
TGI [15]: > 100 µM
TGI [16]: > 100 µM
TGI [17]: > 91 µM
TGI [19]: 62.9 µM
TGI [20]: > 100 µM
TGI [65]: > 100 µM
TGI [21]: > 70.3 µM
TGI [66]: > 100 µM
TGI [67]: > 92.6 µM
TGI [23]: 57.5 µM
TGI [25]: > 100 µM
TGI [26]: > 100 µM
TGI [27]: > 100 µM
TGI [28]: > 100 µM
TGI [29]: > 100 µM
TGI [30]: > 100 µM
TGI [32]: > 100 µM
TGI [33]: 97.5 µM
TGI [34]: 35.6 µM
TGI [35]: > 100 µM
TGI [57]: > 100 µM
TGI [36]: 15.6 µM
TGI [37]: > 79.9 µM
TGI [38]: 26.4 µM
TGI [39]: > 100 µM
TGI [68]: > 100 µM
TGI [41]: 98.1 µM
TGI [42]: > 100 µM
TGI [43]: > 100 µM
TGI [44]: > 100 µM
TGI [45]: > 100 µM
TGI [46]: > 100 µM
TGI [47]: > 94 µM
TGI [48]: > 100 µM
TGI [49]: > 31.6 µM
TGI [50]: 43 µM
TGI [51]: > 100 µM
TGI [53]: > 95.2 µM
TGI [54]: > 100 µM

— PubChem BioAssay (NCI)
